From patent publication US20170368082A1, “FORMULATIONS OF BRINCIDOFOVIR” (priority 2016, published 2017)
Values joined by “and” are separate entries in the source; they are usually repeats but may differ in a detail not shown here. Identical values can stand only once.

Test: Phase 2 toxicokinetics of brincidofovir and cidofovir in plasma
Type: in vivo, Sprague-Dawley CD rats
Parameters: Imputed Concentration, Mean: unit: ng/mL
Conditions: plasma; for C (Concentration), individual animals: 15 mg/kg; for Imputed Concentration, individual animals / Imputed Concentration, Mean: BLQ imputed as zero
Method: Plasma samples (108) were collected 2 hours following the initiation of dosing on Day 1 and Day 7 (Group 1), or at 1, 2, 8, and 24 hours following the initiation of dosing on Day 1, and prior to administration and at 2, 8, and 24 hours following the initiation of dosing on Day 7 (Groups 2 and 3), and analyzed to determine the concentrations of brincidofovir and the metabolite, cidofovir), by LC/MS/MS.
Approximately 0.4 mL of whole blood was obtained via the tail vein from each animal at each time point. Animals were not fasted prior to blood collection. Blood was collected into tubes containing K2EDTA anticoagulant and placed on wet ice in an upright position, per facility SOP prior to processing. Plasma was separated by centrifugation (10 minutes at approximately 2000 g, at approximately 2-8° C.). Approximately 0.10 mL of plasma was transferred into a single cryotube appropriately labeled with study number, animal number, time point, date of sampling and sample type. Remaining plasma was transferred into a second cryotube and retained as a backup sample. Plasma frozen at approximately −80±10° C. within approximately 2 hours after collection of each blood sample until analysis. Animals were euthanized (CO2 inhalation) after the final blood collection.
In general, TK parameters were estimated using mean plasma concentrations of brincidofovir and cidofovir derived from the composite blood sampling design using Phoenix WinNonLin (V 6.3).
A composite blood sampling design was used such that each rat was sampled twice per sampling day. Blood was collected via tail vein from unanesthetized animals into tubes containing anticoagulant and placed on wet ice in an upright position. Animals were not fasted prior to blood collection. Plasma was separated by centrifugation (for 10 minutes at approximately 2000 g, at approximately 2-8° C.), and transferred into individually labeled cryotubes. All cryotubes containing the collected plasma samples were appropriately labeled as to study number, animal number, time point, date of sampling and sample type. All plasma samples were obtained and frozen at approximately −80° C. (±10° C.) within approximately 2 hours after collection of each blood sample until analysis.
Rat plasma bioanalysis was conducted by Pyxant Laboratories. Plasma samples were analyzed for concentrations of brincidofovir and cidofovir using a method based upon protein precipitation extraction followed by LC-MS/MS analysis; calibration ranges for brincidofovir and cidofovir were 1.00-1500 ng/mL and 5.00-750 ng/mL, respectively, (Pyxant study number 3025) for a 50 μL aliquot of rat plasma. Sample analysis for ISR was not performed as part of this non-GLP study.
For the generation of Mean Profiles, all sample concentrations that were below the limit of quantitation (BLQ) were set to 0.
All pharmacokinetic parameter estimates were completed using a Non-Compartmental Model (Model 200-202 for IV infusion administration). The AUClast and AUCinf were calculated using the linear up log down trapezoidal rule.

[1] = brincidofovir 1 mg/kg 2-h IV infusion, female rats, Day 7, 0 h
[2] = brincidofovir 1 mg/kg 2-h IV infusion, female rats, Day 7, 24 h
[3] = brincidofovir 1 mg/kg 2-h IV infusion, male rats, Day 7, 8 h
[4] = brincidofovir 1 mg/kg 2-h IV infusion, male rats, Day 7, 24 h
[5] = brincidofovir 15 mg/kg 2-h IV infusion, female rats, Day 7, 0 h
[6] = brincidofovir 15 mg/kg 2-h IV infusion, male rats, Day 7, 0 h

## CCCCCCCCCCCCCCCCOCCCOP(=O)(O)CO[C@H](CO)Cn1ccc(N)nc1=O [Brincidofovir]
Female rats, Day 7, 24 h, listed as BCV
  C (Concentration), individual animals: BLQ
Male rats, Day 7, 0 h
  C (Concentration), individual animals: BLQ
Brincidofovir 1 mg/kg 2-h IV infusion, female rats, Day 1, 1 h, listed as BCV
  Imputed Concentration, individual animals: 126 ng/mL and 177 ng/mL
Brincidofovir 1 mg/kg 2-h IV infusion, female rats, Day 1, 2 h, listed as BCV
  Imputed Concentration, individual animals: 164 ng/mL and 155 ng/mL
Brincidofovir 1 mg/kg 2-h IV infusion, female rats, Day 1, 8 h, listed as BCV
  Imputed Concentration, individual animals: 2.30 ng/mL and 1.45 ng/mL and 0.00 ng/mL
Brincidofovir 1 mg/kg 2-h IV infusion, female rats, Day 1, 24 h
  Imputed Concentration, individual animals: 0.00 ng/mL
[1]
  Imputed Concentration, Mean: 0.00 ng/mL
  Imputed Concentration, individual animals: 0.00 ng/mL
Brincidofovir 1 mg/kg 2-h IV infusion, female rats, Day 7, 2 h
  Imputed Concentration, Mean: 95.4 ng/mL
Brincidofovir 1 mg/kg 2-h IV infusion, female rats, Day 7, 2 h, listed as BCV
  Imputed Concentration, individual animals: 115 ng/mL and 82.1 ng/mL and 89.2 ng/mL
Brincidofovir 1 mg/kg 2-h IV infusion, female rats, Day 7, 8 h
  Imputed Concentration, Mean: 2.19 ng/mL
Brincidofovir 1 mg/kg 2-h IV infusion, female rats, Day 7, 8 h, listed as BCV
  Imputed Concentration, individual animals: 6.58 ng/mL and 0.00 ng/mL (2×)
[2]
  Imputed Concentration, Mean: 0.00 ng/mL
  Imputed Concentration, individual animals: 0.00 ng/mL
Brincidofovir 1 mg/kg 2-h IV infusion, male rats, Day 1, 1 h, listed as BCV
  Imputed Concentration, individual animals: 244 ng/mL and 280 ng/mL
Brincidofovir 1 mg/kg 2-h IV infusion, male rats, Day 1, 2 h, listed as BCV
  Imputed Concentration, individual animals: 283 ng/mL and 203 ng/mL
Brincidofovir 1 mg/kg 2-h IV infusion, male rats, Day 1, 8 h
  Imputed Concentration, individual animals: 0.00 ng/mL
Brincidofovir 1 mg/kg 2-h IV infusion, male rats, Day 1, 24 h
  Imputed Concentration, individual animals: 0.00 ng/mL
Brincidofovir 1 mg/kg 2-h IV infusion, male rats, Day 7, 0 h
  Imputed Concentration, individual animals: 0.00 ng/mL
Brincidofovir 1 mg/kg 2-h IV infusion, male rats, Day 7, 2 h
  Imputed Concentration, Mean: 208 ng/mL
Brincidofovir 1 mg/kg 2-h IV infusion, male rats, Day 7, 2 h, listed as BCV
  Imputed Concentration, individual animals: 255 ng/mL and 189 ng/mL and 179 ng/mL
[3]
  Imputed Concentration, Mean: 0.00 ng/mL
  Imputed Concentration, individual animals: 0.00 ng/mL
[4]
  Imputed Concentration, Mean: 0.00 ng/mL
  Imputed Concentration, individual animals: 0.00 ng/mL
Brincidofovir 15 mg/kg 2-h IV infusion, female rats, Day 1, 1 h
  Imputed Concentration, Mean: 3470
Brincidofovir 15 mg/kg 2-h IV infusion, female rats, Day 1, 1 h, listed as BCV
  Imputed Concentration, individual animals: 3030 and 3930 and 3450
Brincidofovir 15 mg/kg 2-h IV infusion, female rats, Day 1, 2 h
  Imputed Concentration, Mean: 2570
Brincidofovir 15 mg/kg 2-h IV infusion, female rats, Day 1, 2 h, listed as BCV
  Imputed Concentration, individual animals: 2460 and 1860 and 3380
Brincidofovir 15 mg/kg 2-h IV infusion, female rats, Day 1, 8 h
  Imputed Concentration, Mean: 6.53
Brincidofovir 15 mg/kg 2-h IV infusion, female rats, Day 1, 8 h, listed as BCV
  Imputed Concentration, individual animals: 5.05 and 7.97 and 6.57
Brincidofovir 15 mg/kg 2-h IV infusion, female rats, Day 1, 24 h
  Imputed Concentration, Mean: 2.02
Brincidofovir 15 mg/kg 2-h IV infusion, female rats, Day 1, 24 h, listed as BCV
  Imputed Concentration, individual animals: 2.32 and 1.25 and 2.48
[5]
  Imputed Concentration, Mean: 0.00
  Imputed Concentration, individual animals: 0.00
Brincidofovir 15 mg/kg 2-h IV infusion, female rats, Day 7, 2 h
  Imputed Concentration, Mean: 1660
Brincidofovir 15 mg/kg 2-h IV infusion, female rats, Day 7, 2 h, listed as BCV
  Imputed Concentration, individual animals: 2220 and 995 and 1750
Brincidofovir 15 mg/kg 2-h IV infusion, female rats, Day 7, 8 h, listed as BCV
  Imputed Concentration, individual animals: 5.32 and 6.27 and 4.75
Brincidofovir 15 mg/kg 2-h IV infusion, male rats, Day 1, 1 h
  Imputed Concentration, Mean: 4370
Brincidofovir 15 mg/kg 2-h IV infusion, male rats, Day 1, 1 h, listed as BCV
  Imputed Concentration, individual animals: 4020 and 4030 and 5060
Brincidofovir 15 mg/kg 2-h IV infusion, male rats, Day 1, 2 h
  Imputed Concentration, Mean: 2840
Brincidofovir 15 mg/kg 2-h IV infusion, male rats, Day 1, 2 h, listed as BCV
  Imputed Concentration, individual animals: 2510 and 2990 and 3010
Brincidofovir 15 mg/kg 2-h IV infusion, male rats, Day 1, 8 h
  Imputed Concentration, Mean: 9.59
Brincidofovir 15 mg/kg 2-h IV infusion, male rats, Day 1, 8 h, listed as BCV
  Imputed Concentration, individual animals: 10.7 and 8.23 and 9.85
Brincidofovir 15 mg/kg 2-h IV infusion, male rats, Day 1, 24 h
  Imputed Concentration, Mean: 1.22
Brincidofovir 15 mg/kg 2-h IV infusion, male rats, Day 1, 24 h, listed as BCV
  Imputed Concentration, individual animals: 1.20 and 1.10 and 1.36
[6]
  Imputed Concentration, Mean: 0.00
  Imputed Concentration, individual animals: 0.00
Brincidofovir 15 mg/kg 2-h IV infusion, male rats, Day 7, 2 h
  Imputed Concentration, Mean: 1910
Brincidofovir 15 mg/kg 2-h IV infusion, male rats, Day 7, 2 h, listed as BCV
  Imputed Concentration, individual animals: 1640 and 1940 and 2150
Brincidofovir 15 mg/kg 2-h IV infusion, male rats, Day 7, 8 h, listed as BCV
  Imputed Concentration, individual animals: 9.82 and 7.60 and 8.73
